Experiments:
[1] = system: disease tolerance (T) level; test: Connectivity map drug screen: effect of each drug on tolerance level; assay type: cell-based; details: for effect on tolerance: connectivity map drug screen, at least 6 cell lines of different tissues, all tissues under study; for Effect on tolerance level: t-test, positive/negative sign = increasing/decreasing level following drug treatment
From the text: (§1) Using the drug screen of the connectivity map [Aravind Subramanian et al., Cell 171 (6): 1437-1452 (2017)], the effect of each drug on resistance and tolerance was next analyzed in at least 6 cell lines of different tissues. Identification of multiple drugs that display an effect on resistance/tolerance-related diseases allows (i) repurposing of drugs, and (ii) personalized prioritization of drugs. For instance, the screen tested three P glycoprotein inhibitors: zosuquidar, elacridar, and dofequidar. […] Thus, for specific disease in which P glycoprotein inhibitor is required, it is possible to prioritize drugs for each patient based on its baseline combination of resistance and tolerance state.

resistance (R) level = test: Connectivity map drug screen: effect of each drug on resistance level; assay type: cell-based; details: for effect on resistance: connectivity map drug screen, at least 6 cell lines of different tissues; for Effect on resistance level: t-test, positive/negative sign = increasing/decreasing level following drug treatment
From the text: as §1

Compound | effect on tolerance [1] | Effect on tolerance level ([1]; tissue: breast) [signed −log p-values] | Effect on tolerance level ([1]; tissue: kidney) [signed −log p-values] | Effect on tolerance level ([1]; tissue: large intestine) [signed −log p-values] | Effect on tolerance level ([1]; tissue: pancreas) [signed −log p-values] | Effect on tolerance level ([1]; tissue: prostate) [signed −log p-values] | Effect on tolerance level ([1]; tissue: skin) [signed −log p-values] | effect on resistance (resistance (R) level) | Effect on resistance level (resistance (R) level; tissue: breast) [signed −log p-values] | Effect on resistance level (resistance (R) level; tissue: kidney) [signed −log p-values] | Effect on resistance level (resistance (R) level; tissue: large intestine) [signed −log p-values] | Effect on resistance level (resistance (R) level; tissue: pancreas) [signed −log p-values] | Effect on resistance level (resistance (R) level; tissue: prostate) [signed −log p-values] | Effect on resistance level (resistance (R) level; tissue: skin) [signed −log p-values]
O=C(C(c1ccccc1)c1ccccc1)N1CCN(CC(O)COc2cccc3ncccc23)CC1 (stereo not shown) [dofequidar] | increased tolerance | 6.29 | 2.40 | 6.03 | 2.60 | 1.54 | 0.89 | increasing resistance | 0.89 | 7.33 | 9.14 | 5.84 | 3.47 | 9.17
COc1cc2c(cc1OC)CN(CCc1ccc(NC(=O)c3cccc4c(=O)c5cccc(OC)c5[nH]c34)cc1)CC2 [elacridar] | increased tolerance | 1.84 | 8.48 | 13.47 | −0.10 | −1.43 | 2.77 | increasing resistance | 7.26 | 6.87 | 10.56 | 2.33 | 4.37 | 4.66
O[C@@H](COc1cccc2ncccc12)CN1CCN([C@@H]2c3ccccc3[C@@H]3[C@H](c4ccccc42)C3(F)F)CC1 [zosuquidar] | – | 11.19 | 5.15 | 5.89 | 5.81 | 5.97 | 2.91 | – | 0.13 | −2.54 | −7.65 | −2.82 | −2.05 | −6.00
